The source of these data is paper PMC11399263 (Nature Communications, 2024).

The target in assay [1] is T1, MefHα/DmgHβ (Aminobacter niigataensis, UniProt A0AAX7FLU4).
T1 construct: gene N7E70_023840; subunit-swapped heteromer of full-length subunits from two strains, co-expressed in E. coli; with Dimethylguanidine hydrolase subunit beta
T1 sequence (A0AAX7FLU4 20-376): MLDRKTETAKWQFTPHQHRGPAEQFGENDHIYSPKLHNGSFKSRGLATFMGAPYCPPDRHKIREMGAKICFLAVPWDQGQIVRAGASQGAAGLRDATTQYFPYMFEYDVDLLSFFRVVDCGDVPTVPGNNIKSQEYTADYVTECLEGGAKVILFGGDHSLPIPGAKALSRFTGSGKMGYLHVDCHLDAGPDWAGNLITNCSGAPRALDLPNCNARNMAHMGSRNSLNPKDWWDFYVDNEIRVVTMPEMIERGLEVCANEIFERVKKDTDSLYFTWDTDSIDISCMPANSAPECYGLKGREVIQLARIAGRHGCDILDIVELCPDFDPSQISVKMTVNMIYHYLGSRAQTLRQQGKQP
T1 sequence (A0ABR6L539 1-348 partner): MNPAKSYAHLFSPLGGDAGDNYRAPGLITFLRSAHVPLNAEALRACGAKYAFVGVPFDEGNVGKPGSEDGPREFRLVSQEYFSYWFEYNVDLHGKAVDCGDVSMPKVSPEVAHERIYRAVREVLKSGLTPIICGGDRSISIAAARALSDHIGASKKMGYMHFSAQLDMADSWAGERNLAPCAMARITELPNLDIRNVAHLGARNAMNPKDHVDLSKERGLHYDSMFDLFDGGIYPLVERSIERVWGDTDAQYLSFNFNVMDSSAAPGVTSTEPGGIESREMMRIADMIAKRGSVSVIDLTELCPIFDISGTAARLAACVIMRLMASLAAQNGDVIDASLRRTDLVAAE
Kind of assay: guanylurea production by LC-MS. As to conditions: 2 mM substrate, Tris-HCl pH 8, 30 °C. It counts as biochemical.

Assay [2] addresses 6x His-tagged metformin hydrolase α subunit of Aminobacter niigataensis MD1 (Aminobacter niigataensis MD1). Kind of assay: crystal structure; 6x His-AnMefH complex, 13.3 mg/ml; crystals from 20% PEG 3350, 100 mM Bis Tris Propane-HCl pH 6.5, 200 mM NaF, 18 °C; soaked with urea.

`CN(C)C(=N)NC(=N)N` [metformin]: the “guanylurea production by LC-MS” value in assay [1] is reported as “MefHα/DmgHβ preferentially hydrolyzed metformin”.

In turn, “metformin hydrolase β subunit of Aminobacter niigataensis MD1, untagged (natural protein)” had a stoichiometry N (MefHβ per MefHα) in assay [2] of 2.
